Measurements published in patent US20030215462A1, “Use of UGT inhibitors to increase bioavailability” (priority 2001, published 2003).

Experiments:
[1] = system: T1, UGT enzymes of human liver microsomes; assay: Inhibition of 7-HFC glucuronidation in human liver microsomes; type: biochemical; details: inhibitor 500 μM; 7-HFC 50 μM, human liver microsomes 100 μg/ml, 15 min
T1 construct: percentage of control metabolism, 7-HFC glucuronidation; percentage of control metabolism, 7-HFC glucuronidation

[2] = cited from earlier work
[3] = system: UGT enzymes of human liver microsomes; assay: Inhibition of raloxifene glucuronidation (G1, G2) in human liver microsomes; type: biochemical; details: raloxifene 50 μM; for % of control metabolism (SD, n = 3), raloxifene glucuronide G1 / % of control metabolism (SD, n = 3), raloxifene glucuronide G2: human liver microsomes 250 μg/ml, 15 min
Source text: Compounds were eluted using a binary solvent gradient system. […] Solvent B was methanol. […] Detection was at 280 nm.

UGT1A1 [4] = biological target: T2, UGT1A1 (Homo sapiens, UniProt P22309); assay: Inhibition of raloxifene glucuronidation by recombinant UGT1A1 Supersomes; details: UGT1A1
T2 sequence (P22309 26-533): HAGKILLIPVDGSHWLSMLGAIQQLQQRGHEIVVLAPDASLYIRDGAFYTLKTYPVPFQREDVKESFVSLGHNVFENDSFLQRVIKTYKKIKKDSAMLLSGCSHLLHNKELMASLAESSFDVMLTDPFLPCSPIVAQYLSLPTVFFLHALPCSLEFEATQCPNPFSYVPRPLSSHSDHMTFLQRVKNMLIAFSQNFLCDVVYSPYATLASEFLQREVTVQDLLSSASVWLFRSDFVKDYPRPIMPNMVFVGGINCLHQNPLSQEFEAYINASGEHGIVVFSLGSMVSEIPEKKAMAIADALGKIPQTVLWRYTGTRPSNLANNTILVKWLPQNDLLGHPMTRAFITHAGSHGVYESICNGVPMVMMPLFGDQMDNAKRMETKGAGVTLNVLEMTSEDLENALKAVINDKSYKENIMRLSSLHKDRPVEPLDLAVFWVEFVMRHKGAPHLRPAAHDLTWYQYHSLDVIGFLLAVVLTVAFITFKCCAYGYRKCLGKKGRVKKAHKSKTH
Experimental: (§2) Compounds were eluted using a binary solvent gradient system. Solvent A was water brought to pH 8 with NH4OH. Solvent B was methanol. Solvent flow rate was 1 ml/min and the column temperature was maintained at 50° C. Detection was at 280 nm. […] The system was then returned to the initial conditions and equilibrated for 3 min.

UGT1A3 = biological target: T3, UGT1A3 (Homo sapiens, UniProt P35503); assay: in vitro
T3 sequence (P35503 29-534): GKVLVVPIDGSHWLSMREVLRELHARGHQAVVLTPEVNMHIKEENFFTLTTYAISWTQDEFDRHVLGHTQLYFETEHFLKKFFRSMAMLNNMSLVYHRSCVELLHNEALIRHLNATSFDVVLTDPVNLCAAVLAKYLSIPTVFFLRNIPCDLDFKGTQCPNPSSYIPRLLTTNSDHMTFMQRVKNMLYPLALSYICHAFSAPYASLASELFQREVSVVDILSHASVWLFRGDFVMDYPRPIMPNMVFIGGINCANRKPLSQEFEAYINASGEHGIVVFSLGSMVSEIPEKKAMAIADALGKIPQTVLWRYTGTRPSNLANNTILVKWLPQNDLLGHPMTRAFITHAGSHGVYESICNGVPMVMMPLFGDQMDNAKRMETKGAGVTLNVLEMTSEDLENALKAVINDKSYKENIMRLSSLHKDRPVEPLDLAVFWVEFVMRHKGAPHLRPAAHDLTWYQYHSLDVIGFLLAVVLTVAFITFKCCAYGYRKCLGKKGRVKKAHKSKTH
Experimental: as §2

[5] = system: UGT enzymes of pooled human jejunum microsomes; assay: Inhibition of 2ME2 glucuronidation (MG1) in pooled human jejunum microsomes; type: biochemical; details: jejunum HJ61, 2ME2 50 μM
Source text: (§1) Compounds were eluted using a binary solvent gradient system where solvent A was dilute phosphoric acid (pH 3) and solvent B was 80:20 acetonitrile-methanol. […] Detection was at 280 nm.

[6] = system: UGT enzymes of pooled human jejunum microsomes; assay: Inhibition of zidovudine glucuronidation in pooled human jejunum microsomes; type: biochemical; details: inhibitor 200 μM
Experimental: Increasing the microsomal protein concentration to 1 mg/ml and extending the incubation time to 60 min provided meaningful metabolite levels for inhibition studies.

UGT1A10 [7] = biological target: T4, UGT1A10 (Homo sapiens, UniProt Q9HAW8); assay: in vitro; details: pH 7.5, % of control metabolism
T4 sequence (Q9HAW8 26-530): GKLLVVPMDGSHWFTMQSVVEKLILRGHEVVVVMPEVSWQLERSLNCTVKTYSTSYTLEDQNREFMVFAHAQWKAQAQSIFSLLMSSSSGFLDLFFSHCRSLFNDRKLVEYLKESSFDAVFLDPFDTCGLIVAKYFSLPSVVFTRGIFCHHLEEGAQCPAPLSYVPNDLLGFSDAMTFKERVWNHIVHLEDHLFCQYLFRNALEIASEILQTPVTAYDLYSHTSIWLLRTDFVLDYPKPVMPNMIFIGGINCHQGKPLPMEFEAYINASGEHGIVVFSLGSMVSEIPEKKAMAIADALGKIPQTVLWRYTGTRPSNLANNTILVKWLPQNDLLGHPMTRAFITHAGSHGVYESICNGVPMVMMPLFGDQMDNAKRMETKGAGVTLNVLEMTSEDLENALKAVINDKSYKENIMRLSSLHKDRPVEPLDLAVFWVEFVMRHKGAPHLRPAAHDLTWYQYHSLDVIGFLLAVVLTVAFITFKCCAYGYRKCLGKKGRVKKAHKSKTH
Experimental: as §2

UGT1A10 [8] = biological target: T4, UGT1A10; assay: Inhibition of raloxifene glucuronidation by recombinant UGT1A10 Bacculosomes
Experimental: as §2

[9] = system: T1, UGT enzymes of human liver microsomes; assay: Kinetic and Ki studies of inhibitors of 7-HFC glucuronidation in human liver microsomes; type: biochemical; details: 7-HFC 20-500 μM
UGT1A9 = biological target: T5, UGT1A9 (Homo sapiens, UniProt O60656); assay: in vitro; details: pH 7.5, % of control metabolism
T5 sequence (O60656 26-530): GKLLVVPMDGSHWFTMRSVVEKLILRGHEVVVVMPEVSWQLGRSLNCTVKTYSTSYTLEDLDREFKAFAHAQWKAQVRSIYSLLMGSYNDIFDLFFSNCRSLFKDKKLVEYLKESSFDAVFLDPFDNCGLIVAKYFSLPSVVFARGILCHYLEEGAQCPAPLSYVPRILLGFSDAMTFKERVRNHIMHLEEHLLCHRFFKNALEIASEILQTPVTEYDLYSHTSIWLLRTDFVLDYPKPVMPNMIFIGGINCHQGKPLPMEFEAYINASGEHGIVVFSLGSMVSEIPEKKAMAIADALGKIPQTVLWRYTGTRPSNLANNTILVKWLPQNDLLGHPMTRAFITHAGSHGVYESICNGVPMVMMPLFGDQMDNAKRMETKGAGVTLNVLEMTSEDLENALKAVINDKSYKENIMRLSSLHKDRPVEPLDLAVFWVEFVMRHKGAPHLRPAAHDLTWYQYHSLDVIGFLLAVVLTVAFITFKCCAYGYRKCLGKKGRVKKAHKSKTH
Experimental: as §2

UGT1A1 [10] = biological target: T2, UGT1A1; assay: in vitro
Experimental: as §2

[11] = system: T6, UGT enzymes of human liver microsomes; assay: Inhibition of 2ME2 glucuronidation (MG1, MG2) in human liver microsomes; type: biochemical; details: liver 062101, 2ME2 50 μM
T6 construct: other: liver 062101
Source text: as §1

[12] = pH 7.5, % of control metabolism, raloxifene G1
[13] = pH 7.5, % of control metabolism, raloxifene G2

SMILES: CCCN(CCC)S(=O)(=O)c1ccc(C(=O)O)cc1 [Probenecid, reference compound]
- % of control metabolism (SD, n = 3), 7-HFC glucuronidation [1]: 91 (1) %
- increase in zidovudine levels on co-administration ([2]; AIDS patients and healthy volunteers): 2 fold
- reduction in diflunisal metabolism to acyl- and phenol-glucuronides ([2]; coadministration with diflunisal): 50%
- % of control metabolism (SD, n = 3), raloxifene glucuronide G1 ([3]; inhibitor 500 μM): 70 (4) %
- % of control metabolism (SD, n = 3), raloxifene glucuronide G2 ([3]; inhibitor 500 μM): 70 (1) %

SMILES: O=C(O)Cc1ccccc1Nc1c(Cl)cccc1Cl [Diclofenac, reference compound]
- inhibition of raloxifene glucuronidation, in words (UGT1A1 [4]): poor inhibitors
- activity at 15 min, 50 µM (UGT1A3; [12]): 74%
- activity at 15 min, 50 µM (UGT1A3; [13]): 75%
- activity at 15 min, 50 µM (UGT1A3; pH 7.5, Inhibition of raloxifene glucuronidation, G1, UGT1A3): 74%
- activity at 15 min, 50 µM (UGT1A3; pH 7.5, Inhibition of raloxifene glucuronidation, G2, UGT1A3): 75%
- residual metabolism (% of control), 2ME2 MG1 ([5]; inhibitor 50 μM): 100 (3) %
- residual metabolism (% of control), 2ME2 MG1 ([5]; inhibitor 100 μM): 97 (4) %
- residual metabolism (percentage of control), zidovudine [6]: 18 (2) %
- activity at 15 min, 50 µM (UGT1A10 [7]; raloxifene G1): 97%
- activity at 15 min, 50 µM (UGT1A10 [7]; raloxifene G2): 93%
- inhibition of raloxifene glucuronidation, in words (UGT1A10 [8]): poor inhibitors
- Vmax of 7-HFC glucuronidation (fit of the experiment with this inhibitor) [9]: 64 ± 4 nmol/min/mg
- Km ([9]; read-out: Km of 7-HFC glucuronidation (fit of the experiment with this inhibitor)): 87 ± 7 µM
- % of control metabolism (SD, n = 3), raloxifene glucuronide G1 ([3]; inhibitor 50 μM): 65 (1) %
- % of control metabolism (SD, n = 3), raloxifene glucuronide G1 ([3]; inhibitor 100 μM): 50 (3) %
- % of control metabolism (SD, n = 3), raloxifene glucuronide G1 ([3]; inhibitor 500 μM): 6 (1) %
- % of control metabolism (SD, n = 3), raloxifene glucuronide G2 ([3]; inhibitor 50 μM): 67 (1) %
- % of control metabolism (SD, n = 3), raloxifene glucuronide G2 ([3]; inhibitor 100 μM): 53 (3) %
- % of control metabolism (SD, n = 3), raloxifene glucuronide G2 ([3]; inhibitor 500 μM): 6 (1) %
- % of control metabolism, raloxifene G1 ([3]; inhibitor 50 μM): 65 (1) %
- % of control metabolism, raloxifene G2 ([3]; inhibitor 50 μM): 67 (1) %
- % of control metabolism, raloxifene G1 ([3]; inhibitor 100 μM): 50 (3) %
- % of control metabolism, raloxifene G2 ([3]; inhibitor 100 μM): 53 (3) %
- activity at 15 min, 50 µM (UGT1A9; raloxifene G1): 74%
- activity at 15 min, 50 µM (UGT1A9; raloxifene G2): 77%
- activity at 15 min, 50 µM (UGT1A1 [10]; [12]): 66%
- activity at 15 min, 50 µM (UGT1A1 [10]; [13]): 73%
- activity at 15 min, 50 µM (UGT1A1 [10]; pH 7.5, Inhibition of raloxifene glucuronidation, G1, UGT1A1): 66%
- activity at 15 min, 50 µM (UGT1A1 [10]; pH 7.5, Inhibition of raloxifene glucuronidation, G2, UGT1A1): 73%
- residual metabolism (% of control), 2ME2 MG1 ([11]; inhibitor 50 μM): 70 (1) %
- residual metabolism (% of control), 2ME2 MG2 ([11]; inhibitor 50 μM): 60 (1) %
- residual metabolism (% of control), 2ME2 MG1 ([11]; inhibitor 100 μM): 54 (1) %
- residual metabolism (% of control), 2ME2 MG2 ([11]; inhibitor 100 μM): 44 (3) %
